Experimental findings from article PMC3106998, “The novel sigma-2 receptor ligand SW43 stabilizes pancreas cancer progression in combination with gemcitabine” (2010) are described below.

The assay deals with T1, sigma-2 receptor (Mus musculus, UniProt Q8VD00).
T1 construct: gene Tmem97; Panc02 tumor membrane homogenates
T1 sequence (Q8VD00 1-176): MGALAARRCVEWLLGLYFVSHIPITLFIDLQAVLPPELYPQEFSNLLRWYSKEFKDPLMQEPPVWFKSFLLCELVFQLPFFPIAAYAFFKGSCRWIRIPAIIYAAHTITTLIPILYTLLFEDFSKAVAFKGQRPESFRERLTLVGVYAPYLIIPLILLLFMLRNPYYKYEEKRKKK
Briefly: radioligand competition with […]-ISO-2 in membrane homogenates. The class given is binding.

Molecules are shown by their SMILES.

`COc1ccc(C)cc1NC(=O)OC1CC2CCCC(C1)N2CCCCCCN` (centres unmarked) [SV119] returned an IC50 of 7.8 ± 1.7 nM.

For `COc1ccc(C)cc1NC(=O)OC1CC2CCCC(C1)N2CCCCCCCCCCN` (centres unmarked) [SW43], the IC50 came out at 18 ± 2.1 nM.
